{"source": "paper PMC5675611", "about": "“GZD824 suppresses the growth of human B cell precursor acute lymphoblastic leukemia cells by inhibiting the SRC kinase and PI3K/AKT pathways” (Oncotarget, 2016)", "key": {"NALM6 cells": {"tested_on": "NALM6 cells", "assay": "Annexin V apoptosis flow cytometry", "format": "cell-based, human", "description": "Human pre-B ALL cell lines NALM6 and SUPB15 were purchased from American Type Culture Collection (ATCC, Maryland, USA). All pre-B ALL cell lines were maintained in cell culture media and conditions as recommended by the ATCC. Cells were treated with GZD824 for 24 hours. GZD824 (3μM, 1μM, or 0.5μM) was used in the experiments unless otherwise noted. NALM6 and SUPB15 cells were maintained in RPMI-1640 medium (Gibco, New York, NY, USA) with 10% fetal bovine serum (Biochrom, Melbourne, Australia).\nFor identification of apoptotic cells among NALM6, SUPB15, and primary pre-B ALL cells, the GZD824-treated cells were stained with Annexin V Apoptosis Detection Kit (88-8007, BD ebioscience, CA, USA) according to the manufacturer's instructions (Affymetrix ebioscience, CA, USA) and then subjected to flow cytometric analysis by the Accuri™ C6 (BD Biosciences, CA, USA). For the in vitro drug sensitivity test in Figure 6A, the human CD45+ cells in spleen and bone marrow from sick mice account for over 95% of the total. We enriched human CD45+ cells in PB by MACS according to the manufacturer's instruction. After the enrichment, the purity of human CD45+ cell in PB reached 95%. The percentage of apoptotic cells was demarcated as the amount of both early and late facets of apoptosis (annexin V positive), as previously described. All data were analyzed with FlowJo software (Tree Star, Inc., Ashland, USA)."}, "SUPB15 cells": {"tested_on": "SUPB15 cells", "assay": "Annexin V apoptosis flow cytometry", "format": "cell-based, human", "settings": "24 h", "description": "Human pre-B ALL cell lines NALM6 and SUPB15 were purchased from American Type Culture Collection (ATCC, Maryland, USA). All pre-B ALL cell lines were maintained in cell culture media and conditions as recommended by the ATCC. Cells were treated with GZD824 for 24 hours. GZD824 (3μM, 1μM, or 0.5μM) was used in the experiments unless otherwise noted. NALM6 and SUPB15 cells were maintained in RPMI-1640 medium (Gibco, New York, NY, USA) with 10% fetal bovine serum (Biochrom, Melbourne, Australia). For identification of apoptotic cells among NALM6, SUPB15, and primary pre-B ALL cells, the GZD824-treated cells were stained with Annexin V Apoptosis Detection Kit (88-8007, BD ebioscience, CA, USA) according to the manufacturer's instructions (Affymetrix ebioscience, CA, USA) and then subjected to flow cytometric analysis by the Accuri™ C6 (BD Biosciences, CA, USA). For the in vitro drug sensitivity test in Figure 6A, the human CD45+ cells in spleen and bone marrow from sick mice account for over 95% of the total. We enriched human CD45+ cells in PB by MACS according to the manufacturer's instruction. After the enrichment, the purity of human CD45+ cell in PB reached 95%. […] All data were analyzed with FlowJo software (Tree Star, Inc., Ashland, USA)."}, "[1]": {"tested_on": "normal human primary B cells", "assay": "Annexin V apoptosis of normal B cells", "format": "cell-based", "settings": "1μM, vs DMSO"}}, "data": [{"smiles": "Cc1ccc(C(=O)Nc2ccc(CN3CCN(C)CC3)c(C(F)(F)F)c2)cc1C#Cc1cnc2[nH]ncc2c1", "note": "[GZD824]", "values": [{"measurement": "percentages of apoptotic cells", "setting": "NALM6 cells; NALM6, 500 nM", "value": "did not increase"}, {"measurement": "apoptotic rate", "setting": "NALM6 cells; NALM6, 1μM, 24 h", "value": "moderate"}, {"measurement": "apoptosis (Annexin V-positive cells), comparison of inhibitors", "setting": "NALM6 cells; NALM6, 3μM of drug, 24 hours, Fig 5E", "value": "significantly increased apoptotic level"}, {"measurement": "cells undergoing apoptosis (AnnexinV+)", "setting": "NALM6 cells; NALM6, 3μM, 24 h", "value": 74.4, "unit": "%"}, {"measurement": "apoptotic rate", "setting": "SUPB15 cells; SUPB15, 1μM", "value": "moderate"}, {"measurement": "cells undergoing apoptosis (AnnexinV+)", "setting": "SUPB15 cells; SUPB15, 3μM", "value": 48.3, "unit": "%"}, {"measurement": "apoptosis in normal human primary B cells", "setting": "[1]", "value": "did not induce apoptosis"}]}]}
